Test results published in ChEMBL document CHEMBL1201862, “PubChem BioAssay data set” (2004).
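Following 48 hours of exposure in 96-well plates, responses at five concentrations were used to interpolate endpoints linearly. GI50 is the concentration that inhibits growth by half.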 Calls of active or inactive are those of the source. Cut-off read from the data, not from the text of the source: active = GI50 up to about 1.1 µM and inactive = higher.

Columns and labels:
Experiment in all cases: NCI-60 cell line screen, 48 h
KM12 = test system: KM12
XF498 = test system: XF498
NCI-H23 = test system: NCI-H23
RPMI-8226 = test system: RPMI-8226
DMS-273 = test system: DMS-273
SR = test system: SR
U-251 = test system: U-251
SW-620 = test system: SW-620
ACHN = test system: ACHN
SF-539 = test system: SF-539
K562 = test system: K562
HCT-116 = test system: HCT-116
TK-10 = test system: TK-10
UO-31 = test system: UO-31
CAKI-1 = test system: CAKI-1
RXF 393 = test system: RXF 393
OVCAR-5 = test system: OVCAR-5
UACC-257 = test system: UACC-257
MOLT-4 = test system: MOLT-4
NCI-H226 = test system: NCI-H226
COLO 205 = test system: COLO 205
LXFL 529 = test system: LXFL 529
LOX IMVI = test system: LOX IMVI
A498 = test system: A498
SK-OV-3 = test system: SK-OV-3
HCT-15 = test system: HCT-15
HT-29 = test system: HT-29
CCRF-CEM = test system: CCRF-CEM
SF-268 = test system: SF-268
OVCAR-3 = test system: OVCAR-3
NCI-H460 = test system: NCI-H460
HOP-18 = test system: HOP-18
HCC 2998 = test system: HCC 2998
DMS-114 = test system: DMS-114
A549 = test system: A549
EKVX = test system: EKVX
SNB-78 = test system: SNB-78
DLD-1 = test system: DLD-1
M19-MEL = test system: M19-MEL
NCI-H522 = test system: NCI-H522
SK-MEL-28 = test system: SK-MEL-28
SF-295 = test system: SF-295
M14 = test system: M14
UACC-62 = test system: UACC-62
HOP-92 = test system: HOP-92
SNB-19 = test system: SNB-19
SK-MEL-2 = test system: SK-MEL-2
OVCAR-8 = test system: OVCAR-8
SN12C = test system: SN12C
OVCAR-4 = test system: OVCAR-4
KM-20L2 = test system: KM-20L2
786-0 = test system: 786-0
HL-60 = test system: HL-60
HOP-62 = test system: HOP-62
SNB-75 = test system: SNB-75
Malme-3M = test system: Malme-3M

## C#CC1(O)CCC2[C@@H]3CCc4cc(Oc5nc(F)nc(-c6c7ccccc7cn6C)n5)ccc4C3CC[C@@]21C (stereo partly specified)
KM12
  GI50: > 100 µM (inactive)
XF498
  GI50: > 100 µM (inactive)
NCI-H23
  GI50: > 100 µM (inactive)
RPMI-8226
  GI50: > 47.4 µM (inactive)
DMS-273
  GI50: > 66.1 µM (inactive)
SR
  GI50: > 46.3 µM (inactive)
U-251
  GI50: > 100 µM (inactive)
SW-620
  GI50: 55.5 µM (inactive)
ACHN
  GI50: > 100 µM (inactive)
SF-539
  GI50: > 100 µM (inactive)
K562
  GI50: > 67 µM (inactive)
HCT-116
  GI50: > 100 µM (inactive)
TK-10
  GI50: > 100 µM (inactive)
UO-31
  GI50: > 62.1 µM (inactive)
CAKI-1
  GI50: > 100 µM (inactive)
RXF 393
  GI50: > 93.1 µM (inactive)
OVCAR-5
  GI50: > 100 µM (inactive)
UACC-257
  GI50: > 100 µM (inactive)
MOLT-4
  GI50: 44.9 µM (inactive)
NCI-H226
  GI50: > 100 µM (inactive)
COLO 205
  GI50: > 78.9 µM (inactive)
LXFL 529
  GI50: > 100 µM (inactive)
LOX IMVI
  GI50: > 100 µM (inactive)
A498
  GI50: > 100 µM (inactive)
SK-OV-3
  GI50: > 100 µM (inactive)
HCT-15
  GI50: > 72.3 µM
HT-29
  GI50: > 100 µM (inactive)
CCRF-CEM
  GI50: 30.7 µM (inactive)
SF-268
  GI50: > 88.1 µM (inactive)
OVCAR-3
  GI50: > 100 µM (inactive)
NCI-H460
  GI50: > 79.3 µM (inactive)
HOP-18
  GI50: > 100 µM (inactive)
HCC 2998
  GI50: > 100 µM (inactive)
DMS-114
  GI50: 35.8 µM (inactive)
A549
  GI50: > 100 µM (inactive)
EKVX
  GI50: > 100 µM (inactive)
SNB-78
  GI50: > 100 µM (inactive)
DLD-1
  GI50: > 48.2 µM (inactive)
M19-MEL
  GI50: > 100 µM (inactive)
NCI-H522
  GI50: 89.3 µM (inactive)
SK-MEL-28
  GI50: > 100 µM (inactive)
SF-295
  GI50: > 100 µM (inactive)
M14
  GI50: > 100 µM (inactive)
UACC-62
  GI50: > 100 µM (inactive)
HOP-92
  GI50: > 100 µM (inactive)
SNB-19
  GI50: > 100 µM (inactive)
SK-MEL-2
  GI50: > 100 µM (inactive)
OVCAR-8
  GI50: > 100 µM (inactive)
SN12C
  GI50: > 100 µM (inactive)
OVCAR-4
  GI50: > 100 µM (inactive)
KM-20L2
  GI50: > 100 µM (inactive)
786-0
  GI50: > 100 µM (inactive)
HL-60
  GI50: > 70.5 µM (inactive)
HOP-62
  GI50: > 100 µM (inactive)
SNB-75
  GI50: > 91.2 µM (inactive)
Malme-3M
  GI50: > 100 µM (inactive)
